Measurements taken from article PMC8236452, “Pharmacokinetics and safety of rucaparib in patients with advanced solid tumors and hepatic impairment” (Cancer Chemotherapy and Pharmacology, 2021).
Read-outs that look alike come from different tables or passages of the source.

Legend:
[1] = cited from earlier work
[2] = Urine pharmacokinetics (Ae0–24, CLR) after a single oral dose of rucaparib 600 mg in patients with advanced solid tumors; format: in vivo, human; conditions: urine, single oral rucaparib 600 mg; for CL renal: human, po, 600 mg
Excerpt: Stable deuterium-labeled analytes were used as internal standards.
PK parameters were estimated from the concentration–time profiles.

[3] = design: method as in PMID 32129697; conditions: in vitro; cited from earlier work
patients = tested on: patients; design: method as in PMID 28264872; conditions: dose escalation study; not reached; cited from earlier work
[4] = design: method as in PMID 29799676, PMID 31250355, PMID 28264872; conditions: 600 mg BID, cited from earlier work
[5] = cited from earlier work; remark: listed apart in the source
[6] = Plasma pharmacokinetics after a single oral dose of rucaparib 600 mg in patients with advanced solid tumors, by hepatic function group; conditions: for AUC(0-inf) / AUC(0-t) / Cmax: human, plasma, 600 mg; for AUC(0-t): AUC0–last
Description: In Part 1, patients received a single oral dose of rucaparib 600 mg on day 1; PK samples were collected and safety monitored through day 7.
Sample collection, processing, and shipping were conducted according to standardized protocols shared across study sites. Plasma samples were collected for PK analysis at the predose assessment and at 1, 2, 3, 4, 8, 12, 24, 48, 72, 96, 120, and 144 h postdose. A predose urine sample was collected less than 12 h prior to study drug administration. Total urine was collected 0–12 h and 12–24 h postdose. Total (bound and unbound) concentrations of rucaparib and its metabolite M324 in plasma and urine samples were determined by Q Squared Solutions BioSciences (Ithaca, NY, USA) using validated liquid chromatography mass spectrometry/mass spectrometry methods. Stable deuterium-labeled analytes were used as internal standards. The assay calibration ranges for plasma samples were 5–10,000 ng/mL for rucaparib and 1–1000 ng/mL for M324 with lower limits of quantification (LLOQ) of 5.00 and 1.00 ng/mL, respectively. For urine samples, the calibration range was 500–50,000 ng/mL for both rucaparib and M324, with a LLOQ of 500 ng/mL for both analytes. The precision was within 9.3% CV, and the accuracy was within ± 6.2%.
PK parameters were estimated from the concentration–time profiles. Actual elapsed time after dosing was used to estimate plasma PK parameters based on noncompartmental methods using Phoenix® WinNonlin® version 8.1.0 (Certara USA, Inc., Princeton, NJ, USA). […] Exploratory PK parameters for M324 calculated based on plasma and urine concentration-time data were Cmax, AUC0–last, AUC0–inf, t1/2, tmax, Ae0–24, and CLR, as data allowed.
PK parameters were calculated by noncompartmental analysis, analyzed using descriptive statistics, and presented by hepatic functional status. Analysis of variance (ANOVA) was used to compare PK parameters (e.g., Cmax, AUC0–last, and AUC0–inf) between the normal hepatic function group and the moderate hepatic impairment group per NCI-ODWG criteria. PK values were log-transformed before analysis. Baseline covariates (e.g., creatinine clearance [CLcr], sex, age, BMI, and ECOG PS) were tested for any significant effect (P value < 0.05). Geometric least-squares means were used to calculate the ratios of the PK parameters in the hepatic impairment group to those in the control group, along with 90% confidence intervals (CIs). The Wilcoxon rank-sum test was used to compare tmax values between the two groups, and estimates of the median differences were determined, along with 90% CIs. In addition, the relationships between log-transformed PK parameters (AUC0–last, AUC0–inf, Cmax) for rucaparib and M324 and hepatic function parameters (bilirubin and aspartate aminotransferase [AST]) relevant to the classification of hepatic impairment according to NCI-ODWG were explored by a linear regression approach.

[7] = Child–Pugh mild hepatic impairment
[8] = Child–Pugh moderate hepatic impairment
[9] = Child–Pugh severe hepatic impairment
[10] = NCI-ODWG moderate hepatic impairment
[11] = NCI-ODWG normal hepatic function
[12] = estimated with 36% absolute oral bioavailability
[13] = ANOVA, NCI-ODWG moderate hepatic impairment vs normal hepatic function
[14] = Child–Pugh mild hepatic impairment, single oral rucaparib 600 mg
[15] = Child–Pugh moderate hepatic impairment, single oral rucaparib 600 mg
[16] = Child–Pugh severe hepatic impairment, single oral rucaparib 600 mg
[17] = NCI-ODWG moderate hepatic impairment, single oral rucaparib 600 mg
[18] = NCI-ODWG normal hepatic function, single oral rucaparib 600 mg
[19] = oral, Geometric LS means, ANOVA, NCI-ODWG moderate hepatic impairment (n = 8)
[20] = oral, Geometric LS means, ANOVA, NCI-ODWG normal hepatic function (n = 8)

In the case of `CNCc1ccc(-c2[nH]c3cc(F)cc4c3c2CCNC4=O)cc1` [rucaparib], the plasma protein binding [1] is given as 70%, the CL renal ([2]; Child–Pugh mild hepatic impairment, read-out: CLR, GM) is given as 55.2 mL/min and the CL renal ([2]; Child–Pugh mild hepatic impairment, read-out: CLR, Mean (SD)) is given as 56.7 mL/min. For the same compound, the CL renal ([2]; Child–Pugh mild hepatic impairment, read-out: CLR, Median (min–max)) was 59.5 mL/min, the CL renal ([2]; Child–Pugh moderate hepatic impairment, read-out: CLR, GM) was 48.8 mL/min and the CL renal ([2]; Child–Pugh moderate hepatic impairment, read-out: CLR, Mean (SD)) was 52.3 mL/min. For the same compound, the CL renal ([2]; Child–Pugh moderate hepatic impairment, read-out: CLR, Median (min–max)) was 53.7 mL/min, the CL renal ([2]; Child–Pugh severe hepatic impairment, read-out: CLR, GM) was 16 mL/min and the CL renal ([2]; Child–Pugh severe hepatic impairment, read-out: CLR, Mean (SD)) was 20.1 mL/min. For the same compound, the CL renal ([2]; Child–Pugh severe hepatic impairment, read-out: CLR, Median (min–max)) was 20.1 mL/min, the CL renal ([2]; NCI-ODWG moderate hepatic impairment, read-out: CLR, GM) was 36.9 mL/min and the CL renal ([2]; NCI-ODWG moderate hepatic impairment, read-out: CLR, Mean (SD)) was 46.2 mL/min. The CL renal ([2]; NCI-ODWG moderate hepatic impairment, read-out: CLR, Median (min–max)) was 41.1 mL/min, the CL renal ([2]; NCI-ODWG normal hepatic function, read-out: CLR, GM) was 52.5 mL/min and the CL renal ([2]; NCI-ODWG normal hepatic function, read-out: CLR, Mean (SD)) was 53.5 mL/min. The CL renal ([2]; NCI-ODWG normal hepatic function, read-out: CLR, Median (min–max)) was 56.1 mL/min, the “Ae0–24, GM” value [2, 7] was 17.6 mg and the “Ae0–24, Mean (SD)” value [2, 7] was 20.7 (11.9) mg. The “Ae0–24, Median (min–max)” value [2, 7] was 21.4 (7.69–40.6) mg, the “Ae0–24, GM” value [2, 8] was 28.2 mg and the “Ae0–24, Mean (SD)” value [2, 8] was 29.8 (9.93) mg. For the same compound, the “Ae0–24, Median (min–max)” value [2, 8] was 33.2 (16.7–41.5) mg, the “Ae0–24, GM” value [2, 9] was 8.49 mg and the “Ae0–24, Mean (SD)” value [2, 9] was 8.89 (3.72) mg. The “Ae0–24, Median (min–max)” value [2, 9] was 8.89 (6.26–11.5) mg, the “Ae0–24, GM” value [2, 10] was 16.0 mg and the “Ae0–24, Mean (SD)” value [2, 10] was 19.8 (13.7) mg. For the same compound, the “Ae0–24, Median (min–max)” value [2, 10] was 16.7 (6.26–41.5) mg, the “Ae0–24, GM” value [2, 11] was 22.8 mg and the “Ae0–24, Mean (SD)” value [2, 11] was 25.4 (10.9) mg. For the same compound, the “Ae0–24, Median (min–max)” value [2, 11] was 27.0 (7.69–40.6) mg, the metabolic turnover rate [3] was “low” and the maximum tolerated dose (patients) was greater than 840 mg BID. For the same compound, the “AUC0–12 h at steady state” value ([4]; 54% CV) was 16900 h⋅ng/mL, the “mean steady-state maximum plasma concentration (Cmax,ss)” value ([4]; 54% CV) was 1940 ng/mL and the “Median time to steady-state maximum concentration (tmax,ss)” value [4] was 6840 s. The “time to achieve steady state” value [4] was 1 week, the “hepatic elimination route, share of total clearance” value [5, 12] was ~ 70% and the “renal elimination route, share of total clearance” value [5, 12] was ~ 30%. The “mean terminal half-life (t1/2)” value ([5]; single oral dose of [14C]-rucaparib 600 mg) was 25.9 h, the “AUC0-inf, Geometric mean ratio Moderate/normal (90% CI)” value [6, 13] was 1.446 and the “AUC0–last, Geometric mean ratio Moderate/normal (90% CI)” value [6, 13] was 1.335 (0.617–2.891). For the same compound, the “Cmax, Geometric mean ratio Moderate/normal (90% CI)” value [6, 13] was 0.907 (0.605–1.362), the “AUC0-inf, Geometric mean ratio Moderate/normal (90% CI)” value ([6]; ANOVA, NCI-ODWG moderate hepatic impairment vs normal hepatic function, listed as Rucaparib) was 1.446 (0.668–3.131) and the “CL/F, GM” value [6, 14] was 64.0 L/h. The “CL/F, Mean (SD)” value [6, 14] was 82.2 (59.5) L/h, the “CL/F, Median (min–max)” value [6, 14] was 68.3 (26.4–180) L/h and the “CL/F, GM” value [6, 15] was 23.7 L/h. For the same compound, the “CL/F, Mean (SD)” value [6, 15] was 25.1 (8.62) L/h, the “CL/F, Median (min–max)” value [6, 15] was 28.4 (14.6–34.6) L/h and the “CL/F, GM” value [6, 16] was 22.2 L/h. For the same compound, the “CL/F, Mean (SD)” value [6, 16] was 39.6 (46.4) L/h, the “CL/F, Median (min–max)” value [6, 16] was 39.6 (6.79–72.4) L/h and the “CL/F, GM” value [6, 17] was 30.2 L/h. For the same compound, the “CL/F, Mean (SD)” value [6, 17] was 48.1 (56.8) L/h, the “CL/F, Median (min–max)” value [6, 17] was 29.1 (6.79–180) L/h and the “CL/F, GM” value [6, 18] was 43.7 L/h. For the same compound, the “CL/F, Mean (SD)” value [6, 18] was 55.7 (42.7) L/h, the “CL/F, Median (min–max)” value [6, 18] was 33.1 (15.9–133) L/h and the AUC(0-inf) ([6]; oral, AUC0-inf, Geometric LS means, ANOVA, NCI-ODWG moderate hepatic impairment (n = 8)) was 19900 ng·h/mL. It also gave an AUC(0-inf) ([6]; oral, AUC0-inf, Geometric LS means, ANOVA, NCI-ODWG normal hepatic function (n = 8)) of 13700 ng·h/mL, an AUC(0-t) [6, 19] of 17500 ng·h/mL and an AUC(0-t) [6, 20] of 13100 ng·h/mL. It also gave a Cmax [6, 19] of 583 ng/mL, a Cmax [6, 20] of 642 ng/mL and an AUC(0-inf) ([6]; po, AUC0–inf, GM, Child–Pugh mild hepatic impairment, single oral rucaparib 600 mg) of 9370 ng·h/mL. For the same compound, the AUC(0-inf) ([6]; po, AUC0–inf, GM, Child–Pugh moderate hepatic impairment, single oral rucaparib 600 mg) was 25300 ng·h/mL, the AUC(0-inf) ([6]; po, AUC0–inf, GM, Child–Pugh severe hepatic impairment, single oral rucaparib 600 mg) was 27100 ng·h/mL and the AUC(0-inf) ([6]; po, AUC0–inf, GM, NCI-ODWG moderate hepatic impairment, single oral rucaparib 600 mg) was 19900 ng·h/mL. The AUC(0-inf) ([6]; po, AUC0–inf, GM, NCI-ODWG normal hepatic function, single oral rucaparib 600 mg) was 13700 ng·h/mL, the AUC(0-inf) ([6]; po, AUC0–inf, Mean (SD), Child–Pugh mild hepatic impairment, single oral rucaparib 600 mg) was 11900 ng·h/mL and the AUC(0-inf) ([6]; po, AUC0–inf, Mean (SD), Child–Pugh moderate hepatic impairment, single oral rucaparib 600 mg) was 26800 ng·h/mL. It also gave an AUC(0-inf) ([6]; po, AUC0–inf, Mean (SD), Child–Pugh severe hepatic impairment, single oral rucaparib 600 mg) of 48300 ng·h/mL, an AUC(0-inf) ([6]; po, AUC0–inf, Mean (SD), NCI-ODWG moderate hepatic impairment, single oral rucaparib 600 mg) of 29000 ng·h/mL and an AUC(0-inf) ([6]; po, AUC0–inf, Mean (SD), NCI-ODWG normal hepatic function, single oral rucaparib 600 mg) of 17000 ng·h/mL.
